Results as given in patent publication US8999384B2, “Immediate release compositions of acid labile drugs” (priority 2010, dated 2015).

Experiment: Acid neutralizing capacity of buffers: buffer added to basal SGF and titrated with excess 0.1N HCl for 1 hour
Type: physicochemical
Conditions: for initial rise in pH: at the buffer quantity required to neutralize the SGF (quantity stated per buffer); for pH upon addition of excess acid for a period of 1 h: at the buffer quantity required to neutralize the SGF, 0.1N HCl at 0.5 ml/minute; for quantity of buffer required to neutralize the basal SGF: basal SGF: 9.6 ml of 0.1N HCl + 210 ml of water
Method: A number of buffers, both soluble and insoluble, were tested for their acid neutralizing capacity. Based on their acid neutralizing capacity, buffers, both individual and combination, were evaluated for their behavior at the excess secretion of acid. The technique involved consists of adding an excess dose of the buffer to a sample of artificial gastric juice. […] The model was simulated in vitro and the buffer was added to the basal SGF medium containing 9.6 ml of 0.1N HCl+210 ml of water and titrated with excess acid (0.1N HCl) at the rate of 0.5 ml/minute for a period of 1 hour (total volume=250 ml). The buffer(s) which maintained a pH above 6.0 at the excess secretion of acid was selected.

| initial rise in pH | pH upon addition of excess acid for a period of 1 h | quantity of buffer required to neutralize the basal SGF | SMILES |
| --- | --- | --- | --- |
| 7 | 7 | About 80 mg | [Mg+2].[O-2] [Heavy Magnesium oxide] |
| 8 | 8 | About 1000 mg | NC(CO)(CO)CO [Tromethamine] |
